Consider one compound from PMC11109052, “Metabolism characterization and toxicity of N-hydap, a marine candidate drug for lung cancer therapy by LC–MS method” (Natural Products and Bioprospecting, 2024).

Series [1] addresses T1, recombinant human CYP enzymes (CYP1A2, CYP2B6, CYP2C9, CYP2C19, CYP2D6, CYP3A4, CYP4A11 and CYP4F2) (Homo sapiens, UniProt P05177).
T1 construct: purchased Cypex (Scotland, UK)
In words: Incubation with 8 recombinant human CYP enzymes. Particulars: Table 4 experimental column. Type of series: in vitro ADME. As for the experimental part: (§1) Incubation of N-hydap (2.5 μM) with eight recombinant human CYP enzymes (CYP1A2, CYP2B6, CYP2C9, CYP2C19, CYP2D6, CYP3A4, CYP4A11 and CYP4F2) at three enzyme concentrations (2, 4, and 20 μg/mL) was conducted following the same procedure as described above for microsomes. Subsequently, incubation with N-hydap (1, 2.5, and 6 μM) and twelve recombinant human UGT isoforms (UGT1A1, UGT1A3, UGT1A4, UGT1A6, UGT1A7, UGT1A8, UGT1A9, UGT1A10, UGT2B4, UGT2B7, UGT2B15 and UGT2B17) was performed, with the enzyme concentration used at 2 μg/mL. All reactions were carried out in triplicate.

For series [2], the target named is T2, recombinant human CYP enzymes (CYP1A2, CYP2B6, CYP2C9, CYP2C19, CYP2D6, CYP3A4, CYP4A11 and CYP4F2) (Homo sapiens, UniProt P11712).
T2 construct: purchased Cypex (Scotland, UK)
T2 sequence (P11712 whole entry): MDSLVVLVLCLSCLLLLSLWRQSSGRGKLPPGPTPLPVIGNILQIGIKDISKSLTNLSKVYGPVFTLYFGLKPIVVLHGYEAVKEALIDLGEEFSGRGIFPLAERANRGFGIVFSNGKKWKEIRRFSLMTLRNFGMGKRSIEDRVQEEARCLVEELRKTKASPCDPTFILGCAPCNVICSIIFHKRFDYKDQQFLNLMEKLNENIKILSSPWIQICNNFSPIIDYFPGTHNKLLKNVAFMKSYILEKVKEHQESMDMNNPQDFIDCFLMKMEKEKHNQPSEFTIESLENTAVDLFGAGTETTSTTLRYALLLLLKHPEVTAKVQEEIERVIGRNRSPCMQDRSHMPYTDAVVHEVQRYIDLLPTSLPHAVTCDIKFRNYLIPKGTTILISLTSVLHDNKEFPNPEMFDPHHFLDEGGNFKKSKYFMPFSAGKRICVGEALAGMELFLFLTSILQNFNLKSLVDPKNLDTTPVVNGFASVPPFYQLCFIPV
Briefly: Incubation with 8 recombinant human CYP enzymes. Type of series: in vitro ADME. To be noted: Table 4 experimental column. The procedure: as §1

Series [3] relates to recombinant human CYP enzymes (CYP1A2, CYP2B6, CYP2C9, CYP2C19, CYP2D6, CYP3A4, CYP4A11 and CYP4F2). In words: Incubation with 8 recombinant human CYP enzymes. Type of series: in vitro ADME. Particulars: N-hydap 2.5 μM; enzyme concentrations of 2 and 4 μg/mL; all recombinant CYPs. The procedure: as §1
Series [4] has as its target T3, recombinant human CYP enzymes (CYP1A2, CYP2B6, CYP2C9, CYP2C19, CYP2D6, CYP3A4, CYP4A11 and CYP4F2) (Homo sapiens, UniProt P08684).
T3 construct: purchased Cypex (Scotland, UK)
Briefly: Incubation with 8 recombinant human CYP enzymes. Type of series: in vitro ADME. To be noted: Table 4 experimental column. As for the experimental part:
as §1

Series [5] deals with MKMs. In words: Kinetics of N-hydap glucuronidation in MKMs. Type of series: in vitro ADME, mouse. Particulars: MKM. As for the experimental part: In this study, the rats were executed by drawing blood from the abdominal aorta and mice were sacrificed with cervical dislocation before the liver and kidneys were excised. The liver and kidneys were removed, and washed with chilled cleansing solution (contains 8 mM KH2PO4, 5.6 mM EDTA·K2·2H2O, 1 mM DTT and 229.6 μM PMSF), homogenized in a tissue homogenate buffer with a pH of 7.4, (consisting of […], 8 mM K2HPO4, 250 mM sucrose, 1 mM EDTA·K2·2H2O and 229.6 μM PMSF). Subsequently, the homogenate was centrifuged at 10,400 rpm at 4 °C for 15 min, and the supernatant was then centrifuged at 35,000 rpm at 4 °C for 60 min. A 250 mM sucrose buffer was added to the pellet to reconstitute and the resuspension was stored at − 80 °C until use. Microsome protein concentrations were measured by Omni-Easy™ Instant BCA Protein Assay Kit.
Various microsomes including HLMs, HKMs, HIMs, RLMs, RKMs, MLMs and MKMs were involved in CYP and UGT reactions of N-hydap. […]
The substrate concentrations used for HLMs were 0.05, 0.5, 2, 2.5, 5, 10, 25, 50, and 100 μM. […] The rates of N-hydap-G by enzymes were expressed as nmol/mg/min, representing the amount of metabolites formed per minute per milligram of protein. Kinetic parameters were determined by analyzing the Eadie–Hofstee plots. […]

T1 sequence (P05177 whole entry): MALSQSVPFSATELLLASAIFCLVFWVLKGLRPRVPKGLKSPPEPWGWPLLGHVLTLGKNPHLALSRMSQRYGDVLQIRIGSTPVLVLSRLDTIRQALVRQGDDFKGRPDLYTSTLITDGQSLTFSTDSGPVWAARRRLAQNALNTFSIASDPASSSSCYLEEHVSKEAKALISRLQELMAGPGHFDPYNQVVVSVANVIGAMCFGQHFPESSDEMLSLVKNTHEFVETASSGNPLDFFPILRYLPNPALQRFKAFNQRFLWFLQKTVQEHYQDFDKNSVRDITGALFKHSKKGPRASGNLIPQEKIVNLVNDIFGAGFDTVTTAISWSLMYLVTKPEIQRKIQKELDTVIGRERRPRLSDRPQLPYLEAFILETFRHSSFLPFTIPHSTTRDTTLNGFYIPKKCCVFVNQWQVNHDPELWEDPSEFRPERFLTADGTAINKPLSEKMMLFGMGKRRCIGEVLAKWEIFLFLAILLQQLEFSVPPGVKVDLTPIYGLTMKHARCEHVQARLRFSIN
T3 sequence (P08684 whole entry): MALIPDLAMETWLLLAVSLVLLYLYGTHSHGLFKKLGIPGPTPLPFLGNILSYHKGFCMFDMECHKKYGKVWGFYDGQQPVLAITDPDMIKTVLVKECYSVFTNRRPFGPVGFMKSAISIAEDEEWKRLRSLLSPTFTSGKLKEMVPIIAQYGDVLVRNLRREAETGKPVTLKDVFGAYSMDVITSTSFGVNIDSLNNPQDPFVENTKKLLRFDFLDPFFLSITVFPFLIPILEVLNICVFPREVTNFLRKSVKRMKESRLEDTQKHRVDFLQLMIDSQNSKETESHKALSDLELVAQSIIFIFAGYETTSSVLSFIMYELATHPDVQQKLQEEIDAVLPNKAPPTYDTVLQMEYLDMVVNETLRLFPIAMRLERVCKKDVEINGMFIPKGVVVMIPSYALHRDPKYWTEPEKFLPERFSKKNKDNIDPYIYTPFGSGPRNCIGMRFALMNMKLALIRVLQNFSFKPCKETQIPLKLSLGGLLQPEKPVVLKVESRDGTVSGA

On to `CC1CCC2C(C=CC(C)C2C(=O)c2c(O)c(C3(O)CCC(O)C4OC43)cn(O)c2=O)C1` (centres unmarked) [N-hydap, N-Hydroxyapiosporamide], for which the “CYP1A2 substrate, experimental results” value in series [1] was “Yes”. Further, in series [2], the “CYP2C9 substrate, experimental results” value is “Yes”. Moreover, the prototype elimination rate entry in series [3] was “less than 25%”. Further, in series [4], the “CYP3A4 substrate, experimental results” value is “Yes”. Moreover, the Km in series [5] was 405 µM.

By Km is commonly meant the substrate concentration at which the rate is half of its maximum.
